Source: article PMC7559231, “Drug-induced cholestasis assay in primary hepatocytes” (MethodsX, 2020)
Where two headings read alike, the source gives them in different places.

What was measured:
[1] = test system: sandwich-cultured human hepatocytes; experiment: Drug-induced cholestasis (DIC) assay: urea formation in sandwich-cultured human hepatocytes with and without the bile salt mixture; conditions: lowest in vitro concentration with DICI < 0.78 / Cmax,total; for DICI-based SM obtained with the ‘original’ LOAEL method 24 h: 24 h incubation; for DICI-based SM obtained with the ‘original’ LOAEL method 48 h: 48 h incubation
Excerpt: Drug-induced cholestasis (DIC) is a major cause of attrition during drug development and post-marketing withdrawal. Early detection of DIC is crucial for avoiding financial losses and improving drug safety. Preclinical assays for DIC detection often rely on evaluation of the test compound towards individual cellular targets such as their inhibitory potential towards the bile salt export pump (BSEP) by using BSEP membrane vesicles. However, the underlying mechanisms of DIC development are more complex involving multiple other transporters and nuclear receptors. A more comprehensive in vitro model such as sandwich-cultured human hepatocytes (SCHH) are more suited due to the presence of metabolizing enzymes and transporters relevant to bile salt disposition. The assay described here relies on changes in the ability of SCHH to produce urea from ammonia in the absence and presence of a (patho-)physiologically relevant bile salt mixture. Ammonia is detoxified in the hepatocyte by the urea cycle to form non-toxic urea. Measuring changes in urea production allows for the quantitative evaluation of the hepatocyte's biochemical and functional integrity. The colorimetric quantitation of urea formation is based on the reaction between urea and diacetylmonoxime.
By determining the ratio of urea formation after incubation with test compound in absence and in presence of the bile salt mixture, the DIC index (DICI) value can be calculated. […] It was previously established that a compound with a SM below 30 can be considered to display increased risk for causing cholestasis in the clinic.
If longer incubations are required (e.g. 48 h), the medium is changed again after 24 h (day 6) with fresh medium containing the same initial concentrations of test compound and bile salts as 24 h before.
• Solution 1: culture medium with no compound and 0.2% DMSO. […] This solution should be filtered through a 0.2 µm filter and prewarmed for 30 min at 37°C. • Solution 4: culture medium with double concentrated test compound. […] This solution should be filtered through a 0.2 µm filter and prewarmed for 30 min at 37°C. • Solution 5: control medium with bile salts, prepared by mixing solution 1 and solution 2 in a 1:1 ratio. • Solution 6: culture medium with positive control without bile salts, prepared by mixing solution 1 and solution 3 in a 1:1 ratio. • Solution 7: culture medium with positive control with bile salts, prepared by mixing solution 2 and solution 3 in a 1:1 ratio. • Solution 8: culture medium with test compound without bile salts, prepared by mixing solution 1 and solution 4 in a 1:1 ratio. • Solution 9: culture medium with test compound with bile salts, prepared by mixing solution 2 and solution 4 in a 1:1 ratio.
• 1. On day 5, aspirate the medium and preincubate the cells with solution 1, solution 6 or solution 8 for 2 h. Note: this preincubation step is performed to enable the compounds to interact with the cellular machinery. • 2. After 2 h, aspirate the medium and immediately incubate the cells with solution 1, solution 5, solution 6, solution 7, solution 8 or solution 9 for 22 h.
The urea assay is performed on day 6 or day 7 for 24 h and 48 h incubations, respectively.
• Solutions for the color reagent. […] Note: perform this procedure on ice as this is an exothermic reaction. Wear appropriate protective gear. • ○ Solution B prepared by mixing the thiosemicarbazide solution and the diacetyl monoxime in a 1:1 ratio. • Incubation buffer: HBSS containing 10 mM HEPES, 2 mM glutamine, 10 mM ammonium chloride and 3 mM ornithine, filtered through a 0.2 µm filter and prewarmed at 37°C. • 96-well thermostable plate with aluminum cover slip.
• 1. Aspirate the culture medium. • 2. Wash the wells twice with 250 µL prewarmed incubation buffer. Aspirate the remaining buffer. • 3. Add 125 µL prewarmed incubation buffer to each well and keep the plate at 37°C for 1 h. • 4.

[2] = test system: sandwich-cultured human hepatocytes; conditions: SCHH, ref [6],[7], cited from earlier work; for DICI 24 h Mean: 24 h exposure; for DICI 48 h Mean: 48 h exposure
[3] = design: method as in per compound in column References of Table 3 ([3], [24]-[44]); conditions: mean total peak plasma concentration in humans; ref per compound in Table 3 ([3], [24]-[44]); cited from earlier work

## COC(=O)N[C@H](C(=O)N[C@@H](Cc1ccccc1)[C@@H](O)CN(Cc1ccc(-c2ccccn2)cc1)NC(=O)[C@@H](NC(=O)OC)C(C)(C)C)C(C)(C)C [Atazanavir, atazanavir]
[1]
  DICI-based SM obtained with the ‘original’ LOAEL method 24 h: 31.12
  DICI-based SM obtained with the ‘original’ LOAEL method 48 h: 31.12
[2]; 50 µM test compound
  DICI 24 h Mean: 0.87
  DICI 48 h Mean: 0.86
[2]; 150 µM test compound
  DICI 24 h Mean: 1.19
  DICI 48 h Mean: 0.73
[3]
  Cmax,total: 4.82 µM

## COc1ccccc1Oc1c(NS(=O)(=O)c2ccc(C(C)(C)C)cc2)nc(-c2ncccn2)nc1OCCO [Bosentan, bosentan]
[1]
  DICI-based SM obtained with the ‘original’ LOAEL method 24 h: 27.06
  DICI-based SM obtained with the ‘original’ LOAEL method 48 h: 27.06
[2]; 50 µM test compound
  DICI 24 h Mean: 1.07
  DICI 48 h Mean: 1.06
[2]; 100 µM test compound
  DICI 24 h Mean: 0.99
  DICI 48 h Mean: 0.87
[2]; 200 µM test compound
  DICI 24 h Mean: 1.15
  DICI 48 h Mean: 1.02
[3]
  Cmax,total: 7.39 µM

## O=C1CC2(CCCC2)CC(=O)N1CCCCN1CCN(c2ncccn2)CC1 [Buspirone, buspirone]
[1]
  DICI-based SM obtained with the ‘original’ LOAEL method 24 h: 5000
  DICI-based SM obtained with the ‘original’ LOAEL method 48 h: 15000
[2]; 0.5 µM test compound
  DICI 24 h Mean: 0.69
  DICI 48 h Mean: 0.82
[2]; 1 µM test compound
  DICI 24 h Mean: 0.87
  DICI 48 h Mean: 0.90
[2]; 5 µM test compound
  DICI 24 h Mean: 0.74
  DICI 48 h Mean: 0.95
[2]; 10 µM test compound
  DICI 24 h Mean: 0.82
  DICI 48 h Mean: 0.95
[2]; 25 µM test compound
  DICI 24 h Mean: 0.84
  DICI 48 h Mean: 0.71
[2]; 50 µM test compound
  DICI 24 h Mean: 0.68
  DICI 48 h Mean: 0.48
[2]; 150 µM test compound
  DICI 24 h Mean: 0.53
  DICI 48 h Mean: 0.37
[3]
  Cmax,total: 0.01 µM

## CN(C)CCCN1c2ccccc2Sc2ccc(Cl)cc21 [Chlorpromazine, chlorpromazine]
[1]
  DICI-based SM obtained with the ‘original’ LOAEL method 24 h: 265.96
[2]; 10 µM test compound
  DICI 24 h Mean: 0.48
[3]
  Cmax,total: 0.0376 µM

## CCN(CC)C(=O)/C(C#N)=C/c1cc(O)c(O)c([N+](=O)[O-])c1 [Entacapone, entacapone]
[1]
  DICI-based SM obtained with the ‘original’ LOAEL method 24 h: 29.95
  DICI-based SM obtained with the ‘original’ LOAEL method 48 h: 29.95
[2]; 10 µM test compound
  DICI 24 h Mean: 1.11
  DICI 48 h Mean: 1.02
[2]; 30 µM test compound
  DICI 24 h Mean: 1.07
  DICI 48 h Mean: 0.98
[2]; 130 µM test compound
  DICI 24 h Mean: 0.62
  DICI 48 h Mean: 0.10
[3]
  Cmax,total: 4.34 µM

## CN(C)C(=N)N=C(N)N [Metformin, metformin]
[2]; 150 µM test compound
  DICI 24 h Mean: 1.09
  DICI 48 h Mean: 1.34
[2]; 300 µM test compound
  DICI 24 h Mean: 1.03
  DICI 48 h Mean: 1.26
[2]; 900 µM test compound
  DICI 24 h Mean: 1.12
  DICI 48 h Mean: 1.18
[3]
  Cmax,total: 7.75 µM

## C1CCC(C(CC2CCCCN2)C2CCCCC2)CC1 (stereo not shown) [Perhexiline, perhexiline]
[1]
  DICI-based SM obtained with the ‘original’ LOAEL method 24 h: 30.09
  DICI-based SM obtained with the ‘original’ LOAEL method 48 h: 30.09
[2]; 3 µM test compound
  DICI 24 h Mean: 1.00
  DICI 48 h Mean: 0.80
[2]; 9 µM test compound
  DICI 24 h Mean: 1.03
  DICI 48 h Mean: 0.98
[2]; 65 µM test compound
  DICI 24 h Mean: 1.10
  DICI 48 h Mean: 1.02

## CC(C)c1nc(CN(C)C(=O)N[C@H](C(=O)N[C@@H](Cc2ccccc2)C[C@H](O)[C@H](Cc2ccccc2)NC(=O)OCc2cncs2)C(C)C)cs1 [Ritonavir, ritonavir]
[3]
  Cmax,total: 13.24 µM

## CN(CCOc1ccc(CC2SC(=O)NC2=O)cc1)c1ccccn1 (stereo not shown) [Rosiglitazone, rosiglitazone]
[1]
  DICI-based SM obtained with the ‘original’ LOAEL method 24 h: 56.31

## Clc1ccccc1CN1CCc2sccc2C1 [Ticlopidine, ticlopidine]
[3]
  Cmax,total: 2.898 µM

## CO[C@H]1C[C@H](O[C@H]2[C@H](C)[C@@H](O[C@@H]3O[C@H](C)C[C@H](N(C)C)[C@H]3OC(C)=O)[C@@H](C)C[C@@]3(CO3)C(=O)[C@H](C)[C@@H](OC(C)=O)[C@@H](C)[C@@H](C)OC(=O)[C@@H]2C)O[C@@H](C)[C@@H]1OC(C)=O [Troleandomycin, troleandomycin]
[2]; 10 µM test compound
  DICI 24 h Mean: 1.00
  DICI 48 h Mean: 0.83
[2]; 12.5 µM test compound
  DICI 24 h Mean: 1.41
[2]; 20 µM test compound
  DICI 24 h Mean: 1.12
  DICI 48 h Mean: 0.91
[2]; 25 µM test compound
  DICI 24 h Mean: 1.13
[2]; 50 µM test compound
  DICI 24 h Mean: 0.93
[2]; 100 µM test compound
  DICI 24 h Mean: 0.97

## CC(=O)CC(c1ccccc1)c1c(O)c2ccccc2oc1=O (stereo not shown) [Warfarin, warfarin]
[1]
  DICI-based SM obtained with the ‘original’ LOAEL method 24 h: 71.74
[2]; 500 µM test compound
  DICI 24 h Mean: 1.31
